Earlier results as cited in patent publication US20070196465A1, “Treatment with dihydropyridine calcium channel blockers and omega-3 fatty acids and a combination product thereof” (priority 2005, published 2007).

What was measured:
heart = conditions: Finkel et al. 1992
cells = conditions: dihydropyridine alone
L-type Ca^2+ channel = conditions: dihydropyridine alone

COC(=O)C1=C(C)NC(C)=C([N+](=O)[O-])C1c1ccccc1C(F)(F)F (stereo not shown) [Bay K 8644]
inotropic effect (heart): concentration-dependent positive inotrope
effect on calcium influx / cytosolic free calcium and cell contraction (cells): increases in calcium influx and the contracture of cells
effect on peak L-type Ca2+ channel current, cytosolic Ca2+ and cell contraction (L-type Ca^2+ channel): significantly increases peak L-type Ca^2+ channel current, cytosolic Ca^2+, and cell contraction

CCCCC/C=C\C/C=C\C/C=C\C/C=C\CCCC(=O)O [arachidonic acid]
inotropic effect (heart): concentration-dependent negative inotropes
